Type in all cases: functional, cell-based
For one assay, the system named is HCT-116. The assay can be described thus: Cytotoxicity against human HCT-116 cells assessed as inhibition of cell growth incubated for 72 hrs by CCK-8 assay. The settings on record: HCT-116, 72 h.
In a further assay the test system is MDA-MB-231. Put plainly: Cytotoxicity against human MDA-MB-231 cells assessed as inhibition of cell growth incubated for 72 hrs by CCK-8 assay. The settings on record: MDA-MB-231, 72 h. A general note: Formazan colour is commonly taken as a measure of viable cells.
Another assay deals with A549. The assay can be described thus: Cytotoxicity against human A549 cells assessed as inhibition of cell growth incubated for 72 hrs by CCK-8 assay. Particulars: A549, 72 h.

Our source for the IC50 values is ChEMBL document CHEMBL5357007, “Withanolides from Physalis angulata var. villosa and the Relative Configurational Revision of Some Known Analogs” (J Nat Prod, 2024).

Usually IC50 stands for the concentration that gives 50% inhibition.

With `CCO[C@H]1CC(=O)[C@]2(C)[C@H]3CC[C@]4(C)C([C@H](C)[C@H]5CC(C)=C(C)C(=O)O5)=C[C@H](OC(C)=O)[C@]4(O)[C@@H]3C[C@H]3O[C@]32C1`, the IC50 with HCT-116, with MDA-MB-231 and with A549 was > 10 µM throughout.
As for `CC(=O)O[C@H]1[C@H](O)[C@](O)([C@H](C)[C@H]2CC(C)=C(C)C(=O)O2)[C@@]2(C)CC[C@H]3[C@@H](C[C@H]4O[C@]45[C@@H](O)C=CC(=O)[C@]35C)[C@@]12O`, the IC50 was 7.2 µM with HCT-116, 9.1 µM with MDA-MB-231 and > 10 µM with A549.
The matching figures for `CC1=C(C)C(=O)O[C@@H]([C@@H](C)C2=C[C@H](O)[C@]3(O)[C@@H]4C[C@H]5O[C@]56[C@@H](O)CCC(=O)[C@]6(C)[C@H]4CC[C@]23C)C1`: > 10 µM, > 10 µM and > 10 µM.
The matching figures for `CC(=O)O[C@H]1C=C([C@H](C)[C@H]2CC(C)=C(C)C(=O)O2)[C@@]2(C)[C@H](O)C[C@H]3[C@@H](C[C@@H](O)[C@@]4(O)CC=CC(=O)[C@]34C)[C@@]12O`: > 10 µM, > 10 µM and > 10 µM.
With `CC(=O)O[C@H]1C=C([C@H](C)[C@H]2CC(C)=C(C)C(=O)O2)[C@@]2(C)CC[C@H]3[C@@H](C[C@H]4O[C@]45C[C@@H](O)CC(=O)[C@]35C)[C@@]12O`, the IC50 with HCT-116, in the assay with MDA-MB-231 and with A549 was > 10 µM throughout.
In the case of `CC(=O)O[C@H]1C=C([C@H](C)[C@H]2CC(C)=C(C)C(=O)O2)[C@@]2(C)CC[C@H]3[C@@H](CC(=O)C4CC=CC(=O)[C@@]43C)[C@@]12O` (stereo not given in full), the IC50 in the assay with HCT-116 was 9.2 µM; in the assay on MDA-MB-231, > 10 µM; in the assay with A549, > 10 µM.
`CCO[C@H]1CC(=O)[C@]2(C)[C@H]3CC[C@]4(C)[C@@H]([C@H](C)[C@H]5CC(C)=C(C)C(=O)O5)C[C@H](O)[C@]4(O)[C@@H]3C[C@H]3O[C@]32[C@H]1O`: the IC50 in the assay with HCT-116, in the assay with MDA-MB-231 and in the assay with A549 was > 10 µM each time.
`CC(=O)O[C@H]1C[C@H]([C@H](C)[C@H]2CC(C)=C(C)C(=O)O2)[C@@]2(C)CCC3[C@@H](C[C@@H](O)C4=CC=CC(=O)[C@@]43C)[C@@]12O` (stereo not given in full): the IC50 with HCT-116, in the assay with MDA-MB-231 and in the assay on A549 was > 10 µM in each case.
For the compound `CCO[C@H]1CC(=O)[C@]2(C)[C@H]3CC[C@@]4(C)[C@](O)([C@@H](OC(C)=O)C[C@@]4(O)[C@H](C)[C@H]4CC(C)=C(C)C(=O)O4)[C@@H]3C[C@H]3O[C@]32C1`, the IC50 in the assay with HCT-116, with MDA-MB-231 and in the assay on A549 was > 10 µM in each case.
As to `CCO[C@H]1CC(=O)[C@]2(C)[C@H]3CC[C@]4(C)C([C@H](C)[C@H]5CC(C)=C(C)C(=O)O5)=C[C@H](OC(C)=O)[C@]4(O)[C@@H]3C[C@H]3O[C@]32[C@H]1O`, the IC50 in the assay on HCT-116, in the assay with MDA-MB-231 and in the assay on A549 was > 10 µM in each case.
With `CC(=O)O[C@H]1C[C@H]([C@H](C)[C@@H]2OC(=O)C(C)=C(C)[C@@H]2O)[C@@]2(C)CC[C@H]3[C@@H](C[C@H]4O[C@]45[C@@H](O)C=CC(=O)[C@]35C)[C@@]12O`, the values for the IC50 in the assay on HCT-116, in the assay on MDA-MB-231 and in the assay with A549 were 8.5 µM, > 10 µM and 9.7 µM, respectively.
In the case of `CCO[C@H]1CC(=O)[C@]2(C)[C@H]3CC[C@@]4(C)[C@@](O)([C@@H]3C[C@H]3O[C@]32[C@H]1O)[C@@H](OC(C)=O)[C@@H]1O[C@@]14[C@H](C)[C@H]1CC(C)=C(C)C(=O)O1`, the IC50 in the assay with HCT-116, in the assay on MDA-MB-231 and with A549 was > 10 µM each time.
For `CO[C@H]1C=C([C@H](C)[C@H]2CC(C)=C(C)C(=O)O2)[C@@]2(C)CC[C@H]3[C@@H](C[C@@H](O)[C@@]4(Cl)CC=CC(=O)[C@]34C)[C@@]12O`, the IC50 with HCT-116 is 8.8 µM; in the assay with MDA-MB-231, 9.4 µM; in the assay on A549 it was > 10 µM.
Consider `CC(=O)O[C@H]1[C@@H]2O[C@]2([C@@H](C)[C@H]2CC(C)=C(C)C(=O)O2)[C@@]2(C)CC[C@H]3[C@@H](C[C@H](Cl)[C@]4(O)CC=CC(=O)[C@]34C)[C@@]12O`, for which the IC50 in the assay with HCT-116, in the assay with MDA-MB-231 and in the assay on A549 was > 10 µM each time.
As to `CC(=O)O[C@H]1C[C@](O)([C@H](C)[C@H]2CC(C)=C(C)C(=O)O2)[C@@]2(C)CC[C@H]3[C@@H](C[C@H]4O[C@]45[C@@H](O)C=CC(=O)[C@]35C)[C@@]12O`, the IC50 in the assay on HCT-116 was found to be 1.8 µM; with MDA-MB-231 it was 4.5 µM; in the assay with A549, 5.9 µM.
